US20230398130A1, “METHODS AND COMPOSITIONS FOR DIFFERENTIATING STEM CELLS” (Massachusetts Institute of Technology, priority 2020, published 2023)

Legend:
ISC-enriched organoids [1] = experiment: Primary screen, 384-well 2.5-D organoid differentiation (ENR+CD, 6 days, Target Selective Inhibitor Library, vs whole-plate median): ATP (CellTiter-Glo 3D, CTG); conditions: primary screen; for Dose.FC.CTG: ENR+CD 6 days, FC vs plate median; for Z.CTG: standard z score of FC
ISC-enriched organoids [2] = experiment: Primary screen, 384-well 2.5-D organoid differentiation (ENR+CD, 6 days): basal lysozyme secretion (LYZ.NS); type: cell-based, murine; conditions: primary screen; for Dose.FC.LYZ.NS: ENR+CD 6 days, FC vs plate median; for Z.LYZ.NS: standard z score of FC
Text: (§1) High-throughput screening.

ISC-enriched organoids [3] = experiment: Primary screen, 384-well 2.5-D organoid differentiation (ENR+CD, 6 days): carbachol-induced lysozyme secretion (LYZ.S); type: cell-based, murine; conditions: primary screen, ENR+CD 6 days, FC vs plate median
Text: as §1

SMILES | Dose.FC.CTG (ISC-enriched organoids [1]; dose 0.08 uM) | Z.CTG (ISC-enriched organoids [1]; dose 0.08 uM) | Dose.FC.CTG (ISC-enriched organoids [1]; dose 0.40 uM) | Z.CTG (ISC-enriched organoids [1]; dose 0.40 uM) | Dose.FC.CTG (ISC-enriched organoids [1]; dose 2.00 uM) | Z.CTG (ISC-enriched organoids [1]; dose 2.00 uM) | Dose.FC.CTG (ISC-enriched organoids [1]; dose 10.00 uM) | Z.CTG (ISC-enriched organoids [1]; dose 10.00 uM) | Dose.FC.LYZ.NS (ISC-enriched organoids [2]; dose 0.08 uM) | Z.LYZ.NS (ISC-enriched organoids [2]; dose 0.08 uM) | Dose.FC.LYZ.NS (ISC-enriched organoids [2]; dose 0.40 uM) | Z.LYZ.NS (ISC-enriched organoids [2]; dose 0.40 uM) | Dose.FC.LYZ.NS (ISC-enriched organoids [2]; dose 2.00 uM) | Z.LYZ.NS (ISC-enriched organoids [2]; dose 2.00 uM) | Dose.FC.LYZ.NS (ISC-enriched organoids [2]; dose 10.00 uM) | Z.LYZ.NS (ISC-enriched organoids [2]; dose 10.00 uM) | Dose.FC.LYZ.S (ISC-enriched organoids [3]; dose 0.08 uM) | Dose.FC.LYZ.S (ISC-enriched organoids [3]; dose 0.40 uM) | Dose.FC.LYZ.S (ISC-enriched organoids [3]; dose 2.00 uM) | Dose.FC.LYZ.S (ISC-enriched organoids [3]; dose 10.00 uM)
CN(C)Cc1ccc(-c2nc3cccc4c3n2CCNC4=O)cc1 [AG-14361] | −0.012 log 2 fold change | −0.028 | −0.069 log 2 fold change | −0.165 | 0.005 log 2 fold change | 0.012 | −0.021 log 2 fold change | −0.050 | 0.152 log 2 fold change | 1.324 | 0.036 log 2 fold change | 0.312 | 0.032 log 2 fold change | 0.278 | −0.197 log 2 fold change | −1.713 | 0.100 log 2 fold change | −0.001 log 2 fold change | −0.065 log 2 fold change | −0.189 log 2 fold change
CN1CCCCC1Cn1cc(C(=O)c2cc([N+](=O)[O-])ccc2I)c2ccccc21 (stereo not shown) [AM1241] | 0.159 log 2 fold change | 0.379 | −0.054 log 2 fold change | −0.129 | −0.062 log 2 fold change | −0.147 | −0.001 log 2 fold change | −0.002 | 0.052 log 2 fold change | 0.454 | 0.004 log 2 fold change | 0.035 | −0.014 log 2 fold change | −0.123 | −0.003 log 2 fold change | −0.028 | 0.046 log 2 fold change | 0.088 log 2 fold change | −0.017 log 2 fold change | −0.080 log 2 fold change
O=C1NC(=O)/C(=C/c2ccc(-c3ccc(F)cc3O)o2)S1 [AS-252424] | 0.139 log 2 fold change | 0.333 | −0.074 log 2 fold change | −0.176 | −0.359 log 2 fold change | −0.858 | −0.204 log 2 fold change | −0.487 | 0.070 log 2 fold change | 0.609 | −0.042 log 2 fold change | −0.368 | −0.080 log 2 fold change | −0.695 | −0.077 log 2 fold change | −0.671 | 0.072 log 2 fold change | −0.008 log 2 fold change | −0.074 log 2 fold change | −0.022 log 2 fold change
Cc1cc2c(C(C)C)c(O)c(O)c(C=O)c2c(O)c1-c1c(C)cc2c(C(C)C)c(O)c(O)c(C=O)c2c1O [AT101] | −0.198 log 2 fold change | −0.472 | 0.019 log 2 fold change | 0.044 | −0.216 log 2 fold change | −0.515 | −0.056 log 2 fold change | −0.133 | −0.049 log 2 fold change | −0.426 | −0.068 log 2 fold change | −0.592 | −0.036 log 2 fold change | −0.311 | −0.052 log 2 fold change | −0.452 | 0.004 log 2 fold change | −0.013 log 2 fold change | −0.085 log 2 fold change | −0.061 log 2 fold change
CCNC(=O)c1noc(-c2cc(C(C)C)c(O)cc2O)c1-c1ccc(CN2CCOCC2)cc1 [AUY922 (NVP-AUY922)] | −1.185 log 2 fold change | −2.830 | −1.343 log 2 fold change | −3.208 | −1.137 log 2 fold change | −2.715 | −1.270 log 2 fold change | −3.032 | −0.144 log 2 fold change | −1.251 | −0.154 log 2 fold change | −1.343 | −0.138 log 2 fold change | −1.200 | −0.153 log 2 fold change | −1.330 | −0.209 log 2 fold change | −0.184 log 2 fold change | −0.216 log 2 fold change | −0.214 log 2 fold change
C=CC(=O)Nc1cccc(Nc2nc(Nc3ccc(OCCOC)cc3)ncc2F)c1 [AVL-292] | 0.217 log 2 fold change | 0.518 | 0.057 log 2 fold change | 0.135 | −0.058 log 2 fold change | −0.138 | −0.778 log 2 fold change | −1.859 | 0.095 log 2 fold change | 0.831 | 0.052 log 2 fold change | 0.451 | −0.112 log 2 fold change | −0.979 | −0.213 log 2 fold change | −1.858 | 0.235 log 2 fold change | 0.106 log 2 fold change | −0.206 log 2 fold change | −0.376 log 2 fold change
C[C@@H]1COCCN1c1cc(C2(S(C)(=O)=O)CC2)nc(-c2cccc3[nH]ccc23)n1 [AZ20] | −0.210 log 2 fold change | −0.500 | −0.218 log 2 fold change | −0.521 | −1.054 log 2 fold change | −2.519 | −0.573 log 2 fold change | −1.368 | 0.042 log 2 fold change | 0.365 | −0.140 log 2 fold change | −1.222 | −0.215 log 2 fold change | −1.868 | −0.261 log 2 fold change | −2.271 | −0.038 log 2 fold change | −0.236 log 2 fold change | −0.373 log 2 fold change | −0.329 log 2 fold change
COc1cc(N2CCN(C)CC2)ccc1Nc1nccc(-c2cn(C)c3cnccc23)n1 [AZ191] | 0.292 log 2 fold change | 0.697 | 0.337 log 2 fold change | 0.804 | 0.150 log 2 fold change | 0.358 | −0.533 log 2 fold change | −1.272 | 0.128 log 2 fold change | 1.111 | 0.082 log 2 fold change | 0.717 | 0.058 log 2 fold change | 0.507 | −0.148 log 2 fold change | −1.289 | 0.143 log 2 fold change | 0.199 log 2 fold change | 0.097 log 2 fold change | −0.200 log 2 fold change
